Data: patent US10287301B2 (Achillion Pharmaceuticals, Inc., priority 2015, dated 2019)
Read-outs that look alike come from different tables or passages of the source.

Target: Human Factor D (Homo sapiens (Human), UniProt P00746)
Assay: Human Factor D Assay
Type: biochemical
In short: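 First, compound at various concentrations is mixed with 80 nM (final) human serum Factor D in 50 mM Tris, 1M NaCl, pH 7.5 for 5 min at room temperature.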

[1] = Table 3, Human Factor D 80 nM, substrate Z-L-Lys-SBzl, read-out: IC50 (Stars)
[2] = Human Factor D assay of Example 8, Table 2, read-out: IC50
[3] = Human Factor D, Table 3, read-out: IC50
[4] = Human Factor D 80 nM, substrate Z-L-Lys-SBzl, read-out: IC50

Sequence of Human Factor D (P00746 26-253): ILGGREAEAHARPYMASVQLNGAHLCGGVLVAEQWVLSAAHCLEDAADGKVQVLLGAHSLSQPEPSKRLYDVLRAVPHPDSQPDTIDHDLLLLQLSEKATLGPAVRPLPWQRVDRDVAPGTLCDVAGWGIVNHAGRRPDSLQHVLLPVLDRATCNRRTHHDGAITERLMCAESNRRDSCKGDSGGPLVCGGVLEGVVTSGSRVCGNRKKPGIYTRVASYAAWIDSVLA

Work on CC(=O)c1cn(CC(=O)N2C[C@H](F)C[C@H]2C(=O)NCCc2ccccc2)c2ccc(-c3cnc(C)nc3)cc12 [Compound 443, (2S,4R)-1-(2-(3-Acetyl-5-(2-methylpyrimidin-5-yl)-1H-indol-1-yl)acetyl)-4-fluoro-N-phenethylpyrrolidine-2-carboxamide] yielded an IC50 [1] of less than 1000 nM.

With CC(=O)c1nn(CC(=O)N2CC(F)(F)C[C@H]2C(=O)Nc2cccc(Br)n2)c2ccc(-c3cnc(C)nc3)cc12 [Compound 255, (S)-1-(2-(3-acetyl-5-(2-methylpyrimidin-5-yl)-1H-indazol-1-yl)acetyl)-N-(6-bromopyridin-2-yl)-4,4-difluoropyrrolidine-2-carboxamide] the IC50 [2] was less than 1000 nM.

In the case of CC(=O)c1nn(CC(=O)N2C[C@H](F)C[C@H]2C(=O)Nc2cnc(C)c(Br)n2)c2ccc(-c3cnc4cc(C)nn4c3)cc12 [Compound 662, (2S,4R)-1-(2-(3-Acetyl-5-(2-methylpyrazolo[1,5-a]pyrimidin-6-yl)-1H-indazol-1-yl)acetyl)-N-(6-bromo-5-methylpyrazin-2-yl)-4-fluoropyrrolidine-2-carboxamide], the IC50 [3] is reported as less than 1000 nM.

With NC(=O)c1nn(CC(=O)N2C[C@H](F)C[C@H]2C(=O)N[C@@H]2CCC[C@@H]2OCc2ccccc2)c2ccc(-c3ccnnc3)cc12 [Compound 51, 1-(2-((2S,4R)-2-((1R,2S)-2-(benzyloxy)cyclopentyl-carbamoyl)-4-fluoropyrrolidin-1-yl)-2-oxoethyl)-5-(pyridazin-4-yl)-1H-indazole-3-carboxamide] the IC50 [4] was greater than 10000 nM.

With CC(=O)c1nn(CC(=O)N2CC=C[C@H]2C(=O)Nc2cccc(-c3ccccc3Cl)c2F)c2ccc(-c3cnc(C)nc3)cc12 [Compound 286, (S)-1-(2-(3-acetyl-5-(2-methylpyrimidin-5-yl)-1H-indazol-1-yl)acetyl)-N-(2′-chloro-2-fluorobiphenyl-3-yl)-2,5-dihydro-1H-pyrrole-2-carboxamide] the IC50 [2] was less than 1000 nM.

In the case of CC(=O)c1nn(CC(=O)N2C[C@H](F)[C@@H](N)[C@H]2C(=O)Nc2cccc(Br)n2)c2ccc(-c3cnc(C)nc3)cc12 [Compound 427, (2S,3S,4S)-1-(2-(3-Acetyl-5-(2-methylpyrimidin-5-yl)-1H-indazol-1-yl)acetyl)-3-amino-N-(6-bromopyridin-2-yl)-4-fluoropyrrolidine-2-carboxamide], the IC50 [1] is reported as less than 1000 nM.

With CC(=O)c1cn(CC(=O)N2CC[C@H]2C(=O)Nc2cccc(C)n2)c2ccc(-c3cnc(C)nc3)cc12 [Compound 481, (S)-1-(2-(3-a=Acetyl-5-(2-methylpyrimidin-5-yl)-1H-indol-1-yl)acetyl)-N-(6-methylpyridin-2-yl)azetidine-2-carboxamide] the IC50 [1] was greater than 10000 nM.

Compound CC(=O)c1nn(CC(=O)N2CCC[C@H]2C(=O)Nc2cccc(C)n2)c2ccc(-c3ccc4c(c3)CCC4)cc12 [Compound 572, (S)-1-(2-(3-Acetyl-5-(2,3-dihydro-1H-inden-5-yl)-1H-indazol-1-yl)acetyl)-N-(6-methylpyridin-2-yl)pyrrolidine-2-carboxamide] has an IC50 of 1000 to 10000 nM.

With CC(=O)c1cn(CC(=O)N2C[C@H](F)C[C@H]2C(=O)NCc2ccccc2)c2ccc(-c3cnc(C)nc3)cc12 [Compound 442, (2S,4R)-1-(2-(3-Acetyl-5-(2-methylpyrimidin-5-yl)-1H-indol-1-yl)acetyl)-N-benzyl-4-fluoropyrrolidine-2-carboxamide] the IC50 [1] was less than 1000 nM.

CC(=O)c1nn(CC(=O)N2C[C@H](F)C[C@H]2C(=O)Nc2cccc(Br)n2)c2ccc(-c3cnc(CC(N)=O)nc3)cc12 [Compound 532, (2S,4R)-1-(2-(3-Acetyl-5-(2-(2-amino-2-oxoethyl)pyrimidin-5-yl)-1H-indazol-1-yl)acetyl)-N-(6-bromopyridin-2-yl)-4-fluoropyrrolidine-2-carboxamide] showed an IC50 [1] of less than 1000 nM.

With CC(=O)c1nn(CC(=O)N2C[C@H](F)C[C@H]2C(=O)Nc2cc(Cl)cc(Br)n2)c2ccc(-c3cnc4cc(C)nn4c3)cc12 [Compound 676, (2S,4R)-1-(2-(3-acetyl-5-(2-methylpyrazolo[1,5-a]pyrimidin-6-yl)-1H-indazol-1-yl)acetyl)-N-(6-bromo-4-chloropyridin-2-yl)-4-fluoropyrrolidine-2-carboxamide] the IC50 [3] was less than 1000 nM.

With COc1ncc(-c2ccc3c(c2)c(C(C)=O)nn3CC(=O)N2C[C@H](F)C[C@H]2C(=O)Nc2nc(Br)ccc2C)cn1 [Compound 436, (2S,4R)-1-(2-(3-Acetyl-5-(2-methoxypyrimidin-5-yl)-1H-indazol-1-yl)acetyl)-N-(6-bromo-3-methylpyridin-2-yl)-4-fluoropyrrolidine-2-carboxamide] the IC50 [1] was less than 1000 nM.

COc1cccc(NC(=O)[C@@H]2C[C@@H](F)CN2C(=O)Cn2nc(C(C)=O)c3cc(-c4cnc5cc(C)nn5c4)ccc32)c1F [Compound 275, (2S,4R)-1-(2-(3-acetyl-5-(2-methylpyrazolo[1,5-a]pyrimidin-6-yl)-1H-indazol-1-yl)acetyl)-4-fluoro-N-(2-fluoro-3-methoxyphenyl) pyrrolidine-2-carboxamide] gave an IC50 [2] of less than 1000 nM.

With CC(=O)c1nn(CC(=O)N2C[C@@H](O)C[C@H]2C(=O)Nc2cccc(Br)n2)c2ccc(-c3cnc(C)nc3)cc12 [Compound 249, (2S,4S)-1-(2-(3-Acetyl-5-(2-methylpyrimidin-5-yl)-1H-indazol-1-yl)acetyl)-N-(6-bromopyridin-2-yl)-4-hydroxypyrrolidine-2-carboxamide] the IC50 [2] was less than 1000 nM.

CC(=O)c1nn(CC(=O)N2C[C@H](F)C[C@H]2C(=O)Nc2cccc(Br)n2)c2ccc(-c3ccc4nccn4n3)cc12 [Compound 303, (2S,4R)-1-(2-(3-acetyl-5-(imidazo[1,2-b]pyridazin-6-yl)-1H-indazol-1-yl)acetyl)-N-(6-bromopyridin-2-yl)-4-fluoropyrrolidine-2-carboxamide] was tested, and the IC50 [2] was less than 1000 nM.

CC(=O)c1cn(CC(=O)N2C[C@H](F)C[C@H]2C(=O)Nc2cccc(OC(F)(F)F)n2)c2ccc(-c3cnc4cc(C)nn4c3)cc12 [Compound 656, (2S,4R)-1-(2-(3-Acetyl-5-(2-methylpyrazolo[1,5-a]pyrimidin-6-yl)-1H-indol-1-yl)acetyl)-4-fluoro-N-(6-(trifluoromethoxy)pyridin-2-yl)pyrrolidine-2-carboxamide] was tested, and the IC50 [3] was less than 1000 nM.

Compound CC(=O)c1cn(CC(=O)N2C[C@H](F)C[C@H]2C(=O)Nc2cccc(Br)n2)c2ccc(-c3cccc(Cl)c3)cc12 [Compound 119, (2S,4R)-1-(2-(3-acetyl-5-(3-chlorophenyl)-1H-indol-1-yl)acetyl)-N-(6-bromopyridin-2-yl)-4-fluoropyrrolidine-2-carboxamide] has an IC50 [4] of less than 1000 nM.

Compound CCN1Cc2ccc(NC(=O)[C@@H]3C[C@@H](F)CN3C(=O)Cn3cc(C(C)=O)c4cc(-c5ccnnc5)ccc43)cc2C1=O [Compound 49, (2S,4R)-1-(2-(3-acetyl-5-(pyridazin-4-yl)-1H-indol-1-yl)acetyl)-N-(2-ethyl-3-oxoisoindolin-5-yl)-4-fluoropyrrolidine-2-carboxamide] has an IC50 of 1000 to 10000 nM.

Work on CC(=O)c1nn(CC(=O)N2C[C@H](F)C[C@H]2C(=O)Nc2nc(CC(F)(F)F)cs2)c2ccc(-c3cnc(C)nc3)cc12 [Compound 355, (2S,4R)-1-(2-(3-Acetyl-5-(2-methylpyrimidin-5-yl)-1H-indazol-1-yl)acetyl)-4-fluoro-N-(4-(2,2,2-trifluoroethyl)thiazol-2-yl)pyrrolidine-2-carboxamide] yielded an IC50 [1] of less than 1000 nM.

For CC(=O)c1cn(CC(=O)N2C[C@H](F)C[C@H]2C(=O)NCCCc2ccccc2)c2ccc(-c3cnc4cc(C)nn4c3)cc12 [Compound 687, (2S,4R)-1-(2-(3-Acetyl-5-(2-methylpyrazolo[1,5-a]pyrimidin-6-yl)-1H-indol-1-yl)acetyl)-4-fluoro-N-(3-phenylpropyl)pyrrolidine-2-carboxamide], the IC50 [3] was less than 1000 nM.

Work on CC(=O)c1nn(CC(=O)N2C[C@H](F)C[C@H]2C(=O)Nc2cccc(Br)n2)c2ccc(-c3cnc(C4CC4)nc3)cc12 [Compound 259] yielded an IC50 [2] of less than 1000 nM.

CC(=O)c1nn(CC(=O)N2C[C@H](F)C[C@H]2C(=O)Nc2cccc(Br)n2)c2ccc(-c3cnc4cc(C)nn4c3)cc12 [Compound 243, (2S,4R)-1-(2-(3-acetyl-5-(2-methylpyrazolo[1,5-a]pyrimidin-6-yl)-1H-indazol-1-yl)acetyl)-N-(6-bromopyridin-2-yl)-4-fluoropyrrolidine-2-carboxamide] showed an IC50 [2] of less than 1000 nM.

Work on CC(=O)c1nn(CC(=O)N2C[C@H](F)C[C@H]2C(=O)Nc2cccc(-c3cc(S(=O)(=O)N(C)C)ccc3Cl)c2F)c2ccc(-c3cnc(C)nc3)cc12 [Compound 343, (2S,4R)-1-(2-(3-Acetyl-5-(2-methylpyrimidin-5-yl)-1H-indazol-1-yl)acetyl)-N-(2′-chloro-5′-(N,N-dimethylsulfamoyl)-2-fluoro-[1,1′-biphenyl]-3-yl)-4-fluoropyrrolidine-2-carboxamide] yielded an IC50 [1] of less than 1000 nM.

In the case of CC(=O)c1nn(CC(=O)N2C[C@H](F)C[C@H]2C(=O)Nc2cccc(C3CC3)n2)c2ccc(-c3cnc(C)nc3)cc12 [Compound 576, (2S,4R)-1-(2-(3-Acetyl-5-(2-methylpyrimidin-5-yl)-1H-indazol-1-yl)acetyl)-N-(6-cyclopropylpyridin-2-yl)-4-fluoropyrrolidine-2-carboxamide], the IC50 [3] is reported as less than 1000 nM.

CC(=O)c1nn(CC(=O)N2C[C@H](F)C[C@H]2C(=O)Nc2cncc(Br)n2)c2ccc(-c3ccc4nc(C)cn4c3)cc12 [Compound 654, (2S,4R)-1-(2-(3-Acetyl-5-(2-methylimidazo[1,2-a]pyridin-6-yl)-1H-indazol-1-yl)acetyl)-N-(6-bromopyrazin-2-yl)-4-fluoropyrrolidine-2-carboxamide] gave an IC50 [3] of less than 1000 nM.

Work on CC(=O)c1nn(CC(=O)N2CC[C@H]2C(=O)Nc2cccc(C)n2)c2ccc(-c3ccc(F)nc3)cc12 [Compound 549, (S)-1-(2-(3-Acetyl-5-(6-fluoropyridin-3-yl)-1H-indazol-1-yl)acetyl)-N-(6-methylpyridin-2-yl)azetidine-2-carboxamide] yielded an IC50 [3] greater than 10000 nM.
